# Patent US9428460B2, “N-[4-(quinolin-4-yloxy)cyclohexyl(methyl)](hetero)arylcarboxamides as androgen receptor antagonists, production and use thereof as medicinal products” (BAYER PHARMA AKTIENGESELLSCHAFT, priority 2012, dated 2016)
# Legend:
# [1] = target: androgen receptor mutant W741C (Homo sapiens (Human), UniProt P10275, W742C); assay: Transactivation assay for the androgen receptor mutant W741C (transfected PC-3 cells); assay type: cell-based; conditions: in the presence of 1×10^−10 M R1881, 24 hours
# Chain of androgen receptor mutant W741C (P10275 whole entry W742C): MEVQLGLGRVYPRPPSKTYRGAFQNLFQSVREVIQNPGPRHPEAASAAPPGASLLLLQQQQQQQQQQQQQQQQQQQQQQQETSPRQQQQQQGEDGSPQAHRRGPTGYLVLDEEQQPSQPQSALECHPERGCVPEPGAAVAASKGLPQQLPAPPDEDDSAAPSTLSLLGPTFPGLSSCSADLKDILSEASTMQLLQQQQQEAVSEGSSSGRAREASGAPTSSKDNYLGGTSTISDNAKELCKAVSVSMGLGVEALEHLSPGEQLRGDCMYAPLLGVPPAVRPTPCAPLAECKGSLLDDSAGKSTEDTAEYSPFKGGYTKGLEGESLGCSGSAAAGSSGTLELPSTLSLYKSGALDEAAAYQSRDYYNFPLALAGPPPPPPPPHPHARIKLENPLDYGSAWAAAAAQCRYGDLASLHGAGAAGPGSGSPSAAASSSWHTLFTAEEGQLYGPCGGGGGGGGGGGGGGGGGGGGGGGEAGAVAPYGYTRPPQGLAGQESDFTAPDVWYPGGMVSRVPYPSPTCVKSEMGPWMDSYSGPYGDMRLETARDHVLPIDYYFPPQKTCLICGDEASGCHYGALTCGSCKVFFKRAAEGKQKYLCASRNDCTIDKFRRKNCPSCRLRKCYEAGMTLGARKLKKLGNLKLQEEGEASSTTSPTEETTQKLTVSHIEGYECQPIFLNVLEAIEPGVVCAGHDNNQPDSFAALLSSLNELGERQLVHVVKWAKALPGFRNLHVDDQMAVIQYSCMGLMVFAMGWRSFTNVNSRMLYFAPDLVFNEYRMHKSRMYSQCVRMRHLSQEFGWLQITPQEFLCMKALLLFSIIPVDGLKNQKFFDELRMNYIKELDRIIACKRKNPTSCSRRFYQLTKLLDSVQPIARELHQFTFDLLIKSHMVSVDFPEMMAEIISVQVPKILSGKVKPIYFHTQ
# Protocol: PC-3 cells (Kaighn et al., Invest. Urol. 17: 16-23, 1979) were plated out at a density of 10000 cells per well of a 96-well cell culture plate in RMPI 1640 medium (F1235, Biochrom AG, Berlin, Germany), which contained activated charcoal-treated calf serum (FCS Serum Gold, PAA Laboratories) at a concentration of 5% (v/v). On the next day the cells were transiently transfected with the pSG5-vector (#216201 Stratagene), which contained the sequence of the androgen receptor mutant W741C (Haapala et al., Lab Invest. 81(12): 1647-51, 2001), and with a reporter plasmid based on pGL4.14 (#E6691, Promega) with the luciferase-gene (from Photinus pyralis) under the control of the MMTV promoter (Cato et al., EMBO J. 6: 363-8, 1987). The cells were treated with the test substances in concentrations from 1×10^−8 to 1×10^−10 M in the presence of 1×10^−10 M R1881 and were incubated overnight at 37° C. and 5% CO2. After 24 hours, 100 μl of Steady Glo Lysis and Detection reagent (E2550, Promega) was added per well and the luminescence was read in a Victor3 Luminometer (PerkinElmer) for 1 second per well. The luminescence values obtained were normalized, wherein 100% corresponded to the effect of the unstimulated control (without R1881), and 0% corresponded to the effect of the stimulated control (R1881 plus DMSO instead of test substance). The IC50 value was determined by regression analysis based on a four-parameter equation (minimum, maximum, IC50, Hill coefficient; Y=Max+(Min−Max)/(1+(X/IC50)^Hill)).
# [2] = system: human uterine leiomyoma xenografts; assay: Growth of human xenografts from leiomyoma tissue in immunodeficient mice; assay type: in vivo, mouse
# Protocol: The growth-inhibiting action of inhibitors of the androgen receptor was tested in a xenograft animal model with subcutaneously transplanted tissue fragments from human leiomyomas.
# Human uterine leiomyoma tissue was derived from surgery, in which, based on the diagnosis, either a hysterectomy or a myomectomy was carried out. The uterine leiomyomas (UL) were then prepared free either from the removed uterus or by myomectomy in situ; in the last-mentioned method, the myomas were removed whole or by morcellation from the abdominal cavity.
# The prepared myomas were then immediately put in a suitable sterile buffer (Vitron V7 Buffer (U.S. Pat. No. 5,328,821) or Viaspan organ transplant buffer) at 4° C. for further transport. Then, on a sterile bench with constant moistening, the UL tissue was cut into small blocks with 2×2×2 mm or 2×4×4 mm edge lengths, and the pieces of tissue were stored in a cell culture dish in PBS at room temperature until transplantation (M Fritsch et al. 2010, ISGE abstract & presentation).
# Immunodeficient mice (ICR SCID, CB17 SCID, ICR-Hrhr SCID or SCID beige mice) were ovariectomized at the age of 6-8 weeks (OVX). At the earliest one week after OVX, pellets releasing 17β-estradiol (E2, 0.05 mg/90 d, Innovative Research of America, catalogue number NE-121) and progesterone (P, 25 mg/60 d, Innovative Research of America, catalogue number SP-131) (Innovative Research of America, Sarasota, Fla./USA) were transplanted into the neck region of the animals. Alternatively, the animals can be given replacement therapy with other implants or methods that ensure continuous release of the hormones 17β-estradiol and progesterone. […]
# UL tissue in situ was as a rule characterized by an excessive synthesis and accumulation of proteins of the extracellular matrix, and by increased cell proliferation. […] If specific mechanisms of action of the test substances were known or presumed, in addition the cell proliferation and/or the proportion of the extracellular matrix were determined by histological staining. […]
smiles,measurement,setting,value
"N#Cc1cccc2c(O[C@H]3CC[C@H](NC(=O)c4cccc(F)c4)CC3)ccnc12 [Example 23, N-{trans-4-[(8-cyanoquinolin-4-yl)oxy]cyclohexyl}-3-fluorobenzamide]",IC50,[1],30 nM
same,inhibition of the growth of uterine leiomyoma xenografts,"[2]; 70 mg/kg/d, in 3 out of 4 independent experiments with tissue from different donors",significant inhibition
same,average inhibition of the normalized xenograft growth over the transplantation weight on day 0,[2]; dose of 25 mg/kg/d,−24%
same,average inhibition of the normalized xenograft growth over the transplantation weight on day 0,[2]; dose of 70 mg/kg/d,−59%
